Holding throughout (assay type): biochemical
The target of assay [1] is T1, panel of kinases (Homo sapiens, UniProt P51813).
T1 sequence (P51813 1-675): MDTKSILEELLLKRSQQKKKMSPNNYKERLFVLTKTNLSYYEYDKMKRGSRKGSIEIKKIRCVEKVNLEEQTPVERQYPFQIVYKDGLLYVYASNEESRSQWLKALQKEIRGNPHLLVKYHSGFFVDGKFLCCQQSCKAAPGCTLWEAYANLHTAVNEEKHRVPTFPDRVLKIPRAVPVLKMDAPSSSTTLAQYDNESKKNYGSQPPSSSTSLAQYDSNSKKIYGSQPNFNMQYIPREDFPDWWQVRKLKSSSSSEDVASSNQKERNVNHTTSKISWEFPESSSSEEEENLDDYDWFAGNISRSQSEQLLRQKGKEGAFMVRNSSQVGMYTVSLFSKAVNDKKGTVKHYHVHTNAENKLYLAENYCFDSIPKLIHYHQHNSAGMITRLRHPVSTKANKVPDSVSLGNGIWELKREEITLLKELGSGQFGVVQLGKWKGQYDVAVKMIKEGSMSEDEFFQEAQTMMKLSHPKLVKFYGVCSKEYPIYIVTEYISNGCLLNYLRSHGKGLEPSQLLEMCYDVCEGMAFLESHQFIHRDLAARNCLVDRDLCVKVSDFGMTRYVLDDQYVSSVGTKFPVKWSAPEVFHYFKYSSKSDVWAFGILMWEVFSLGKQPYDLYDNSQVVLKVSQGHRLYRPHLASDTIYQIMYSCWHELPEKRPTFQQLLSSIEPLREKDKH
Nature of the assay: Inhibition of a panel of kinases (in vitro HotSpot kinase assay, 33P-ATP, 1 μM ATP), other kinases. The settings on record: BMX wild-type, read-out: BMX-WT IC50. In a few lines: (§1)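 Radiometric read-out: 33P transfer to a suitable substrate by each purified enzyme, ATP at 1 μM. Values are degree of inhibition.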

The target in assay [2] is T2, TEC (Homo sapiens, UniProt P42680).
T2 sequence (P42680 1-631): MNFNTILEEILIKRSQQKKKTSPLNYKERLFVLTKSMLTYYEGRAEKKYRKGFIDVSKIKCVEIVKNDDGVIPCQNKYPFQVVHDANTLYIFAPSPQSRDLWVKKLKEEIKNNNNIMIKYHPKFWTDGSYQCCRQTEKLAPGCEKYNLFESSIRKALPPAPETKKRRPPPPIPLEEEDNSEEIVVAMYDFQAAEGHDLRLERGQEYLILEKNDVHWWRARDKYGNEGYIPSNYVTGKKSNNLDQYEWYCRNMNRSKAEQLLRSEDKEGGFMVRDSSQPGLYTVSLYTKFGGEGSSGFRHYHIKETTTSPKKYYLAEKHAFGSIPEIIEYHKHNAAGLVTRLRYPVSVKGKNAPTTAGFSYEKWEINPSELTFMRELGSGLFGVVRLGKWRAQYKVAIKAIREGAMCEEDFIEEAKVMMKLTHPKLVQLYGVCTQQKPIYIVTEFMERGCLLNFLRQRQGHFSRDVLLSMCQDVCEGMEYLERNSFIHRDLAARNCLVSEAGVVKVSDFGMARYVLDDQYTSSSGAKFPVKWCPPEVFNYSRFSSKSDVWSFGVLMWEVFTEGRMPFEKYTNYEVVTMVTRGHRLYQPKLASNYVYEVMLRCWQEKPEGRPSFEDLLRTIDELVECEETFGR
Nature of the assay: Inhibition of a panel of kinases (in vitro HotSpot kinase assay, 33P-ATP, 1 μM ATP). The settings on record: for IC50: HotSpot kinase assay, 1 μM ATP; for TEC/Btk: ratio of TEC IC50 to Btk IC50 (selectivity). The method, boiled down:
as §1

The target of assay [3] is T3, Btk (Homo sapiens, UniProt Q06187).
T3 construct: purified from insect cells as a full-length construct containing a N-terminal 6X-His tag; His6 (N); made in house; host or cells: insect cells (Method C)
Nature of the assay: Btk in vitro inhibitory activity (one of Method A TR-FRET, Method B electrophoretic mobility shift, Method C radiometric filter binding). In a few lines:
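Three alternative formats were used. A radiometric filter-binding read used 8 nM full-length His-BTK with 0.2 mg/mL poly(Glu-Tyr) 4:1 (C); microfluidic separation of 1 μM FAM-peptide by 1 nM BTK gave IC50 from 12-point curves (B); TR-FRET at Km ATP, 0.5 nM Btk, gave Ki(app)-derived IC50 (A).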

Setting [4] is: wild-type Btk, read-out: Btk-WT IC50.

Read-outs that look alike come from different tables or passages of the source. A value given as a limit tells only on which side of the number the result lay.

IC50 and TEC/Btk data for 15 compounds are collected here from patent US20180194762A1 (Pharmacyclics LLC, priority 2017, published 2018).

T3 sequence (Q06187 whole entry): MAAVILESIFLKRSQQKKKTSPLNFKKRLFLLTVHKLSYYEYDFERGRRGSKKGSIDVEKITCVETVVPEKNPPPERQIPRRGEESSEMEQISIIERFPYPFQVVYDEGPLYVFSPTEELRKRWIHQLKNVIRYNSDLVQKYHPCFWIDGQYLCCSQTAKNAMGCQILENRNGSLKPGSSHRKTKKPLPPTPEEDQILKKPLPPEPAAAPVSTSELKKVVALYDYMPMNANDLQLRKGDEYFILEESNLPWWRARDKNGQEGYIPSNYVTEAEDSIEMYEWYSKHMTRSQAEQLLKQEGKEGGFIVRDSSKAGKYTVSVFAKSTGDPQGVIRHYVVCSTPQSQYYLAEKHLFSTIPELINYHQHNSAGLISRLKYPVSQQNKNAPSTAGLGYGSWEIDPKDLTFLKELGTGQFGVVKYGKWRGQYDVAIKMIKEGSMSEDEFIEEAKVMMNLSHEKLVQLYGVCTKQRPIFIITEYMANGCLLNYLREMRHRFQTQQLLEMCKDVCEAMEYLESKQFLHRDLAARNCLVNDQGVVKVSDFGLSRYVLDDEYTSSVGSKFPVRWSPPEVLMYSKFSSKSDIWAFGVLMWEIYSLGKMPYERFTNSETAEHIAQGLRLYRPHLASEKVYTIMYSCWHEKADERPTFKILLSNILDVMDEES

As to `C=CC(=O)N[C@@H]1CCN(c2n[nH]c3nccc(-c4ccc(CNC(=O)c5nc(C(C)(C)C)no5)c(F)c4)c23)C1` [Example 331, 3-tert-butyl-N-{[2-fluoro-4-(3-{(3R)-3-[(prop-2-enoyl)amino]pyrrolidin-1-yl}-1H-pyrazolo[3,4-b]pyridin-4-yl)phenyl]methyl}-1,2,4-oxadiazole-5-carboxamide], the IC50 in assay [1] is 33.2 nM; in assay [2] it was 30 nM; in assay [3] (setting [4]) it was 0.0353 nM.
On to `C=CC(=O)N1CC[C@@H](Nc2n[nH]c3nccc(-c4ccc(CNC(=O)c5noc(C(C)(C)C)n5)c(F)c4)c23)C1` [Compound 3, (R)—N-(4-(3-((1-acryloylpyrrolidin-3-yl)amino)-1H-pyrazolo[3,4-b]pyridin-4-yl)-2-fluorobenzyl)-5-(tert-butyl)-1,2,4-oxadiazole-3-carboxamide], for which the IC50 in assay [1] amounted to 39 nM; in assay [2], 20 nM; in assay [3] (setting [4]), 0.205 nM. The TEC/Btk in assay [2] is 98.
In the case of `CC(=O)N1CC[C@H](Nc2n[nH]c3nccc(-c4ccc(CNC(=O)c5noc(C(C)(C)C)n5)c(F)c4)c23)C1` [Example 92, N-{[4-(3-{[(3S)-1-acetylpyrrolidin-3-yl]amino}-1H-pyrazolo[3,4-b]pyridin-4-yl)-2-fluorophenyl]methyl}-5-tert-butyl-1,2,4-oxadiazole-3-carboxamide], the IC50 in assay [1] worked out at 7600 nM; in assay [2], 6920 nM; in assay [3] (setting [4]), 13.7 nM. Besides, in assay [2], the TEC/Btk was 505.
On the same counts, the results for `CC(C)(C)c1ccc(C(=O)NCc2ccc(-c3ccnc4[nH]nc(N[C@H]5CCNC5)c34)cc2F)cc1` [Compound 37, 4-tert-butyl-N-{[2-fluoro-4-(3-{[(3S)-pyrrolidin-3-yl]amino}-1H-pyrazolo[3,4-b]pyridin-4-yl)phenyl]methyl}benzamide] are 8820 nM, more than 10000 nM, 53.9 nM and more than 100.
As to `C[C@H]1CC[C@@H](Nc2n[nH]c3nccc(-c4ccc(CNC(=O)c5nc(C(C)(C)C)no5)c(F)c4)c23)CN1C(=O)CO` [Example 420, 3-tert-butyl-N-{[2-fluoro-4-(3-{[(3R,6S)-1-(hydroxyacetyl)-6-methylpiperidin-3-yl]amino}-1H-pyrazolo[3,4-b]pyridin-4-yl)phenyl]methyl}-1,2,4-oxadiazole-5-carboxamide], the values for the IC50 in assay [1], in assay [2] and in assay [3] (setting [4]) were 1240 nM, 291 nM and 0.379 nM, respectively.
`CC(=O)N1CCC[C@H](Nc2n[nH]c3nccc(-c4ccc(CNC(=O)c5nc(C(C)(C)C)no5)c(F)c4)c23)C1` [Example 168, N-{[4-(3-{[(3S)-1-acetylpiperidin-3-yl]amino}-1H-pyrazolo[3,4-b]pyridin-4-yl)-2-fluorophenyl]methyl}-3-tert-butyl-1,2,4-oxadiazole-5-carboxamide]: the IC50 in assay [1] is more than 10000 nM; in assay [2], more than 10000 nM; in assay [3] (setting [4]), 40.3 nM. Further, the TEC/Btk in assay [2] is listed as more than 100.
As for `C=CC(=O)N1CC[C@@H](Nc2n[nH]c3nccc(-c4ccc(CNC(=O)c5ccc(OC)cc5)c(F)c4)c23)C1` [Compound 49, (R)—N-(4-(3-((1-acryloylpyrrolidin-3-yl)amino)-1H-pyrazolo[3,4-b]pyridin-4-yl)-2-fluorobenzyl)-4-methoxybenzamide], the IC50 in assay [1] came out at 89 nM; in assay [2], 70 nM; in assay [3] (setting [4]) it was 1.78 nM. In assay [2], the TEC/Btk is recorded as 39.
The like results for `C=CC(=O)N1CC[C@@H](Nc2n[nH]c3nccc(-c4cccc(-n5ccc6cc(C7CC7)cc(F)c6c5=O)c4CO)c23)C1` [Compound 18, 6-cyclopropyl-8-fluoro-2-[2-(hydroxymethyl)-3-(3-{[(3R)-1-(prop-2-enoyl)pyrrolidin-3-yl]amino}-1H-pyrazolo[3,4-b]pyridin-4-yl)phenyl]-1,2-dihydroisoquinolin-1-one] were, in that order, 73 nM, 40 nM, 1.69 nM and 23.
For `CC(C)(C)c1nc(C(=O)NCc2ccc(-c3ccnc4[nH]nc(N[C@H]5CC[C@H](O)CC5)c34)cc2F)no1` [Compound 21, 5-tert-butyl-N-{[2-fluoro-4-(3-{[(1r,4r)-4-hydroxycyclohexyl]amino}-1H-pyrazolo[3,4-b]pyridin-4-yl)phenyl]methyl}-1,2,4-oxadiazole-3-carboxamide], the values for the IC50 in assay [1], in assay [2] and in assay [3] (setting [4]) were 4370 nM, 3170 nM and 53.4 nM, respectively. The TEC/Btk in assay [2] is recorded as 59.
The like results for `CC(C)(C)c1noc(C(=O)NCc2ccc(-c3ccnc4[nH]nc(N[C@H]5CCCNC5)c34)cc2F)n1` [Example 167, 3-tert-butyl-N-{[2-fluoro-4-(3-{[(3S)-piperidin-3-yl]amino}-1H-pyrazolo[3,4-b]pyridin-4-yl)phenyl]methyl}-1,2,4-oxadiazole-5-carboxamide] were, in that order, more than 10000 nM, more than 10000 nM, 10.7 nM and more than 100.
In the case of `CC(C)(C)c1noc(C(=O)NCc2ccc(-c3ccnc4[nH]nc(N[C@@H]5CCNC5)c34)cc2F)n1` [Example 79, 3-tert-butyl-N-{[2-fluoro-4-(3-{[(3R)-pyrrolidin-3-yl]amino}-1H-pyrazolo[3,4-b]pyridin-4-yl)phenyl]methyl}-1,2,4-oxadiazole-5-carboxamide], the IC50 is 1790 nM in assay [1]; 1730 nM in assay [2]; less than 10 nM in assay [3] (method is one of A, B or C, not stated which, read-out: IC50 values against Btk); 6.27 nM in assay [3] (setting [4]). For the same compound, the TEC/Btk in assay [2] amounted to 276.
`C=CC(=O)N1CC[C@@H](Nc2n[nH]c3nccc(-c4ccc(CNC(=O)c5ccc6sc(C)nc6c5)c(F)c4)c23)C1` [Example 378, N-{[2-fluoro-4-(3-{[(3R)-1-(prop-2-enoyl)pyrrolidin-3-yl]amino}-1H-pyrazolo[3,4-b]pyridin-4-yl)phenyl]methyl}-2-methyl-1,3-benzothiazole-5-carboxamide]: the 50% inhibitory concentration (IC50) is 69.2 nM in assay [1], 278 nM in assay [2] and 6.54 nM in assay [3] (setting [4]).
As for `C=CC(=O)N1CC[C@@H](Nc2n[nH]c3nccc(-c4ccc(C5(NC(=O)c6noc(C(C)(C)C)n6)CC5)cc4)c23)C1` [Compound 4, (R)—N-(1-(4-(3-((1-acryloylpyrrolidin-3-yl)amino)-1H-pyrazolo[3,4-b]pyridin-4-yl)phenyl)cyclopropyl)-5-(tert-butyl)-1,2,4-oxadiazole-3-carboxamide], the IC50 in assay [1] turned out to be 132 nM; in assay [2], 103 nM; in assay [3] (setting [4]), 0.559 nM. Besides, the TEC/Btk in assay [2] is given as 184.
The like results for `CC(C)(C)c1nc(C(=O)NCc2ccc(-c3ccnc4[nH]nc(C5=CCNC5)c34)cc2F)no1` [Example 280, 5-tert-butyl-N-({4-[3-(2,5-dihydro-1H-pyrrol-3-yl)-1H-pyrazolo[3,4-b]pyridin-4-yl]-2-fluorophenyl}methyl)-1,2,4-oxadiazole-3-carboxamide] were, in that order, 1720 nM, 2150 nM, 8.84 nM and 243.
In the case of `CC(C)(C)c1nc(C(=O)NCc2ccc(-c3ccnc4[nH]nc(N[C@@H]5CCNC5)c34)cc2F)co1` [Example 180, 2-tert-butyl-N-{[2-fluoro-4-(3-{[(3R)-pyrrolidin-3-yl]amino}-1H-pyrazolo[3,4-b]pyridin-4-yl)phenyl]methyl}-1,3-oxazole-4-carboxamide], the IC50 is more than 10000 nM in assay [1], 7180 nM in assay [2] and 23.8 nM in assay [3] (setting [4]). Further, the TEC/Btk in assay [2] is given as 302.
